Measured values taken from patent US8524222B2, “Bacillus isolates and methods of their use to protect against plant pathogens and virus transmission” (Montana State University, priority 2006, dated 2013).
Values joined by “and” are separate entries in the source; they are usually repeats but may differ in a detail not shown here. Equal values may be shown once.

Tests used:
[1] = system: C. beticola; assay: Field studies of Cercospora leaf spot control, Sidney, Mont.; set-up: species or system sugar beet; conditions: in vivo
Procedure: Field studies were conducted at the Eastern Agricultural Research Center in Sidney, Mont. from 1996 through 2003. Sugar beet variety ‘Beta 1996’ was planted the first year, VDH 66140 was planted the second year, HH88 the third year, KW2262 the fourth year and Beta 2185 the fifth, sixth, and seventh years. All cultivars were equally susceptible to C. beticola infection (BetaSeed, Shakopee, Minn., U.S.A.). […] In the last two years, freshly grown, washed cells were harvested from a 24 h tryptic soy broth culture grown at room temperature and prepared as described above, and applied to the plants. Fungicide treatments included triphenyltin hydroxide (TPTFI, SuperTin, Griffin L.L.C.), propiconazole (Tilt, Syngenta Crop Protection, Inc) and tetraconazole (Eminent, Sipeam Agro USA Inc.) that were applied at 390, 253 and 876 g ai ha^−1, respectively. All treatments were applied at 1761 ha^−1 using a CO2 backpack sprayer with a 4-nozzle boom starting at disease onset and continued at 14 day intervals for a total of four sprays. Plots were arranged “in a randomized complete block design. with six replicates per treatment. […] Area under the disease progress curve (AUDPC) was calculated for treated and untreated plants and percent disease control was determined as follows: 1-([…])*100. […]

[2] = system: NPR1; set-up: species or system sugar beet; conditions: in vivo
[3] = system: Botrytis cinerea; set-up: species or system Arabidopsis thaliana; conditions: in vivo
[4] = system: Peroxidase; assay: Apoplastic peroxidase activity (guaiacol reagent); type: in vivo, sugar beet; conditions: distal leaves, six days post treatment
Procedure: The concentration of protein as adjusted to give a change in absorbance units greater than 0.100, but less than 0.200, per minute. Specific activity was expressed as the increase inabsorbance (A470) over time (2 min) per mg of protein, as determined using Bradford reagent (BioRAD).

[5] = system: Cercospora beticola; set-up: species or system sugar beet; conditions: in vivo
[6] = system: Cercospora beticola; set-up: species or system sugar beet; conditions: in vivo; remark: listed apart in the source
[7] = system: salicylic acid; set-up: species or system sugar beet; conditions: in vivo
[8] = system: hydrogen peroxide production; assay: Phenol red oxidation assay for biphasic hydrogen peroxide production in protoplasts and leaf disks; type: cell-based, sugar beet
Procedure: Sugar beet protoplasts were isolated from sugar beet leaves to provide a medium to measure hydrogen peroxide production. Sugar beet leaves were gently brushed on the adaxial and abaxial surfaces with a 50 ft bristle brush to create small abrasions. The leaves were then cut into 1 cm strips and vacuum infiltrated for 5 min with 0.7 M sucrose containing 3.8% CaCL2, CPW salts (Frearson et al, 1973), 1.2% cellulase (Sigma), and 0.4% macerozyme (ICN Biomedicals). The infiltrated leaves were incubated in the 0.7M sucrose-salt and enzyme solution for 24-48 hours in the dark. […]
To determine if the Bacillus strains elicited biphasic hydrogen peroxide production in sugar beet, phenol red oxidation assays were performed according to Pick and Keisari (1980). […] The amount of hydrogen peroxide produced from protoplasts in response to treatment with a Bacillus control agent was calculated as follows: amount of hydrogen peroxide produced in Bacillus protoplast reactions—(amount of hydrogen peroxide produced in protoplast only reactions+amount of hydrogen peroxide produced in Bacillus-only reaction). The amount of hydrogen peroxide produced by the leaf disks in response to Bacillus treatment was calculated as follows: amount of hydrogen peroxide produced by Bacillus-treated leaf disks-amount of hydrogen peroxide produced by leaf disks only reaction.

[9] = system: chitinase and B-1,3-glucanase; assay: Combined glycol chitin and aniline blue plate assays as predictor of SAR induction; type: in vivo, sugar beet; set-up: key: ✓: correctly identified all SAR-inducing isolates, indicated by check marks in Table 5; conditions: identified as SAR-inducer by increased activity of both defense proteins
Description: There may be circumstances where the occurrence of chitinase and B-glucanase alone is not correlated with disease control (Punja, 2001), especially with fungal pathogens, since the enzymes function synergistically (Melchers and Stuiver, 2000). Therefore examination of the defense proteins together provides a more accurate prediction of disease control capability. Based on the assumption that increased activity for both defense proteins indicated SAR-inducing capacity, combined results from the glycol chitin and aniline blue plate assays correctly identified all SAR-inducing isolates, indicated by check marks in Table 5.

[10] = system: Fusarium culmorum isolate 2279; set-up: species or system spring wheat; conditions: in vivo
[11] = system: B-1,3-glucanase; assay: Aniline blue plate assay for B-glucanase activity (screening); type: in vivo, sugar beet; conditions: cumulative results, 6 days after treatment
Procedure: (§1) The leaf penultimate to the oldest true leaf was treated with one of the Bacillus strains. […] The plants were kept at 28+/−2° C. for 6 days at which time the apoplastic proteins were collected as described by Klement (1965), with the following modification: a buffer containing 150 mM NaCl and 25 mM MES, pH 6.2, was substituted for distilled water. The proteins were quantified by Bradford reagent (Bio-Red) using bovine serum albumin as standards and frozen at −80° C. until analyzed.
Apoplastic protein (0.75, 0.50, and 0.25 ug for each sample in replicates of 3) was added to 3-mm diameter wells in a 0.5% agarose gel containing 0.005% aniline blue (MCB) and 0.5m.1/ml laminarin (from Laminaria digitata, Sigma) in a 14 cm diameter glass petri plate, along with laminarinase (Penicillium spp., Sigma) standards (2×10.5−2×10^−3 units of lamina˜inase). The plates were incubated at 30° C. for 18-24 hours. Following Incubation, the pink lytic zones on a blue background were measured while the plate was on a white light source. Specific activity (ug of glucose released/min/mg of apoplastic protein) was determined by comparison of the lytic zone diameter of the standards and the apoplastic samples.

[12] = system: B-1,3-glucanase; assay: B-1,3-glucanase specific activity of apoplastic protein (glucose release from laminarin); type: in vivo, sugar beet; conditions: distal leaves, six days post treatment
Procedure: (§2) One leaf per replicate was collected for each treatment and immediately placed in buffer (150 mm NaCl, 25 mm MES, pH 6-2). Apoplast extractions were collected as described by Klement having substituted buffer (150 mM NaCl, 25 mm MES. pH 6.2) for water.
The specific activity of sugar beet apoplastic B-1,3-glucanase was determined by measuring the release of glucose units from laminarin. Sodium acetate buffer (100 IJI, pH 5.0, 100 mM) containing 0.5% laminarin and 0.5 ug-2.0 ug apoplastic protein (plants per treatment replicated 3 times) was incubated at 3rc for 30-60 min. Following incubation, 900 ul of water and 1 ml of alkaline copper reagent was added to each 2 reaction. The tubes were then placed into a boiling water bath for 10 min. After cooling on ice, 1 ml arsenomolybdate color reagent was added to each reaction. Once the bubbling had subsided, 10 ml of water were added to each tube before reading the A660.

[13] = system: Chitinase; assay: Chitinase specific activity of apoplastic protein by plate assay, six days post treatment; type: in vivo, sugar beet; conditions: distal leaves
Procedure: as §2
Chitinase Specific Activity Determination by Plate Assay Sodium phosphate buffer (pH 5.0, 0.01 M) containing 1 agarose and 0.1% glycol chitin was added to a 9 cm diameter glass petri dish. Wells, 3 mm diameter, were excised from the agarose (three per sample for each of the three replicates per treatment). Dilutions of apoplastic protein (0.7, 0.35, and 0.23 ug) and chitinase standards (chitinase from Streptomycesgriseus Sigma) were loaded into the wells. The plate was incubated at 37° C. for 24 h. Following the incubation, 50 ml of 500 mMTris-HCl (pH 8.9) containing 0.01% fluorescent brightener was added to the plate and incubated for 10 min. The plate was then quickly rinsed 3× with water, flooded with water, and destained overnight in the dark. Non-fluorescent lytic regions on a fluorescent background were measured while the plate was on an uv light source. Specific activity (mg of N-acetyl-n-glucosamine released /hr /mg of apoplastic protein) was determined by comparison of the diameters of the lytic regions for the standards and the lytic regions for the apoplastic protein samples [55]. Results

[14] = system: Chitinase; assay: Glycol chitin plate assay for chitinase activity (screening); type: in vivo, sugar beet; conditions: cumulative results, 6 days after treatment
Procedure: as §1
Apoplastic protein (0.009, 0.006, and 0.005 ug for each sample in replicates of 3) was added to wells in a 1% agarose gel containing 0.01% glycol chitin in a 14 cm diameter glass petri plate, along with chitinase standards (Streptomyces griseus, Sigma). The plates were incubated at 37° C. for 24 hours. Following incubation. 50 ml of 500 mM Tris-HCl (pH 8.9) containing 0.01°/fluorescent brightener was added to the plate for 10 min. The plate was then rinsed three times with distilled water, flooded with water, and allowed to destain in the dark for 2-24 hours. The non-fluorescent lytic zones on a fluorescent background were measured while the plate was on a 302 nm UV light source. Specific activity (mg of N-acetyl-D-glucosamine released/hr/mg of apoplastic protein) was determined by comparison of the lyric zone diameter of the standards and the apoplastic samples (Velasquez. 2002).

Structure (SMILES): [OH][Sn]([c]1ccccc1)([c]1ccccc1)[c]1ccccc1 [TPTH, triphenyltin hydroxide]
- Disease Reduction by Year [1]: 81% and 90% and 94% and 72% and 88^d %

Structure (SMILES): O=C(O)c1ccccc1O [SA, salicylic acid]
- activation of NPR1 [2]: activated NPR1 by 48 hours

Structure (SMILES): C=CCOC1=NS(=O)(=O)c2ccccc21 [PBZ, Probenazole]
- % disease reduction in comparison to distilled water [3]: 41.9 c %

Structure (SMILES): CC/C=C\CC1C(=O)CCC1CC(=O)OC (centres unmarked) [methyl jasmonate]
- % disease reduction in comparison to distilled water [3]: 49.9 d %

Structure (SMILES): CSC(=O)c1cccc2nnsc12 [ASM, Acibenzolar-S-methyl]
- Specific Activity Peroxidase [4]: 71.4 changes in absorbance (470 nm) per minute per milligram of apoplastic protein
- % Reduction at 21 DPC [5]: 63.6% and 64.6%
- disease reduction [6]: 50%
- total SA levels over a 48 hour sampling scheme versus time zero [7]: lack of SA accumulation
- biphasic hydrogen peroxide production [8]: did not induce biphasic hydrogen peroxide production
- Aniline blue and glycol chitin plates [9]: ✓
- activation of NPR1 [2]: activated NPR1 by 48 hours
- Disease Severity Index (%) [10]: 60.43% and 46.88% and 42.73 b % and 48.97% and 37.53 ab % and 47.31 b %
- Aniline blue plates [11]: 5.70a
- Specific Activity Beta-glycanase [12]: 198.6 micrograms of glucose released per minute per milligram of apoplastic protein
- Specific Activity Chitinase [13]: 1.26 milligrams of N-acetyl-n-gluco
- Glycol chitin plates [14]: 3.09hed

Structure (SMILES): O=P(O)(O)CCCl [ethephon, 2-chloroethylphosphonic acid]
- % disease reduction in comparison to distilled water [3]: 28.1 b %
